Assays:
[1] = tested on: catalytic antibody 48G7; experiment: pH-based catalytic antibody biosensor: differential electrode response to MpNPC after incubation in transition state analog; format: biochemical, BALB/C mice; conditions: electrodes incubated in 50 µM TSA; pH 8.5 buffer (0.14 M KCl, 0.01 M Tris, 0.02% sodium azide); substrate MpNPC
Excerpt: A pH-based catalytic antibody biosensor incorporating catalytic antibodies as enzyme mimics in a configuration similar to that of enzyme electrodes was used to measure the pH change resulting from the catalyzed hydrolysis of methyl p-nitrophenylcarbonate (MpNPC). […] The catalytic antibody 48G7 is synthesized and its catalytic activity identified in accordance with the methodology described in Example 1.
The catalytic antibody 48G7 produces a relatively small rate of acceleration as compared to natural enzymes. Consequently, the observed pH difference is small but is easily measurable in a reproducible manner. […] Two miniature pH electrodes 152 and 154 were employed and the difference between the two was monitored. […]
The electrical potential of the two miniature pH electrodes 152 and 154 (Microelectrodes Inc., model MI-404) was monitored relative to a single Ag/AgCl reference electrode 156 in an nonthermostated vessel 158 as shown in Fig. 13 using two Keithley 617 electrometers 160. […]
The reference electrode 156 and the two pH electrodes 152 and 154 were placed in 2.5 ml of a pH 8.5 buffer (0.14 M KCl, 0.01 M Tris, 0.02% sodium azide) and allowed to stabilize for […]. […] The response to MpNPC was measured after approximately 12 hours in solution (not shown) but the remainder of the measurements were performed after approximately 36 hours in solution. […]

[2] = tested on: IgG designated catalytic antibody 48G7, monoclonal antibody elicited to the tetrahedral nitrophenyl phosphonate transition-state analogue (2); experiment: Antibody-catalysed hydrolysis of carbonate (1), followed by the increase in absorbance at 400 nm (nitrophenolate ion release), Michaelis-Menten kinetics; format: biochemical, BALB/C mice
Experimental: BALB/C mice were immunized with the BSA-phosphonate conjugate emulsified in complete Freund's adjuvant. A fusion was carried out by standard methods using SP2/0 myeloma as the fusion partner. IgG was purified from ascites fluid by affinity chromatography on protein A coupled Sepharose 4B and dialyzed exhaustively against reaction buffer.
The rates of hydrolysis of carbonate I (1) in the presence (kobsd) and the absence (kun) of 4.4 µM antibody were determined as a function of substrate concentration. Carbonate hydrolysis was followed in 10 mM Tris-HCl, pH 8.5 at 30°C, by following the increase in absorbance at 400 nm due to nitrophenolate ion release.

[3] = 4.4 µM antibody, 10 mM Tris-HCl, pH 8.5 at 30°C, first pair of values printed
[4] = second pair of values printed ("This IgG", designated 48G7)

Km [2, 3] [µM]	Km [2, 4] [µM]	Structure (SMILES)	inhibition of catalysis (MpNPC hydrolysis) [1]	kcat [2, 3] [s⁻¹]	rate acceleration above background ([2]; antibody-catalysed versus background rate)	kcat [2, 4] [s⁻¹]
–	–	COP(=O)(O)Oc1ccc([N+](=O)[O-])cc1 [transition state analog (TSA), methyl p-nitrophenylphosphate]	effectively inhibits the catalysis	–	–	–
660	350	COC(=O)Oc1ccc([N+](=O)[O-])cc1 [carbonate (1), methyl p-nitrophenylcarbonate]	–	0.0233 ± 0.00333	16,000	0.483
